Structures can show the parent of a compound that is named as a salt.
Legend:
[1] = target: purified human plasma kallikrein (Homo sapiens (Human), UniProt P03952); experiment: Plasma kallikrein enzyme inhibition assay (chromogenic substrate S-2302); type: biochemical
[2] = target: purified human Factor XIa (Homo sapiens (Human), UniProt P03951); experiment: Factor XIa enzyme inhibition assay (chromogenic substrate S-2366); conditions: read-out: Factor XIa Ki; measured at 25° C.
Chain of purified human Factor XIa (P03951 388-625): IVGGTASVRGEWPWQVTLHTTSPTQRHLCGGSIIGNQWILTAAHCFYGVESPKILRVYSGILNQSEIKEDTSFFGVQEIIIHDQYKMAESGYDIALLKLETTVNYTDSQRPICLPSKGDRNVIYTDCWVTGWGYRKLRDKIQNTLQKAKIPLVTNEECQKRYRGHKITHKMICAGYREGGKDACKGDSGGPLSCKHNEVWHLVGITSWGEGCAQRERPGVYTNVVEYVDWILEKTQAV
Chain of purified human Factor XIa (P03951 19-387 partner): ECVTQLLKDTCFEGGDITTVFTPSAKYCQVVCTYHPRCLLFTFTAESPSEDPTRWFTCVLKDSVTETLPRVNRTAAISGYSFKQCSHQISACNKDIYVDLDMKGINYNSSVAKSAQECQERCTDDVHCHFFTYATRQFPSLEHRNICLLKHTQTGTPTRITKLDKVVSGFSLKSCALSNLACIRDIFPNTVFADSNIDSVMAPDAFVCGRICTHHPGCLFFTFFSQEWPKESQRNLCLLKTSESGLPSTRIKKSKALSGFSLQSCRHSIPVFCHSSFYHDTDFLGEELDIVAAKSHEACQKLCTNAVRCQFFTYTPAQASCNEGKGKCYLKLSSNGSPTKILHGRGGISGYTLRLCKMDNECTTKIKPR
Method: The effectiveness of compounds of the present invention as inhibitors of the coagulation Factors XIa, VIIa, IXa, Xa, XIIa, plasma kallikrein or thrombin, can be determined using a relevant purified serine protease, respectively, and an appropriate synthetic substrate. The rate of hydrolysis of the chromogenic or fluorogenic substrate by the relevant serine protease was measured both in the absence and presence of compounds of the present invention. […] A decrease in the rate of absorbance or fluorescence change in the presence of inhibitor is indicative of enzyme inhibition. […] The results of this assay are expressed as the inhibitory constant, Ki.
Values of Ki were determined by allowing the protease to react with the substrate in the presence of the inhibitor.

Chain of purified human plasma kallikrein (P03952 391-638): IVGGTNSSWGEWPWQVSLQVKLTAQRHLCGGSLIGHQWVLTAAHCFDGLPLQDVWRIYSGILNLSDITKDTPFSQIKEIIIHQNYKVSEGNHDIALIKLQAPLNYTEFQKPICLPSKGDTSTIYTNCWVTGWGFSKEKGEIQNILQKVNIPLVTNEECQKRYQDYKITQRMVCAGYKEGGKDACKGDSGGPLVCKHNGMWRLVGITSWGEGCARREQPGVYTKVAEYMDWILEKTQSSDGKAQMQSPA
Chain of purified human plasma kallikrein (P03952 20-390 partner): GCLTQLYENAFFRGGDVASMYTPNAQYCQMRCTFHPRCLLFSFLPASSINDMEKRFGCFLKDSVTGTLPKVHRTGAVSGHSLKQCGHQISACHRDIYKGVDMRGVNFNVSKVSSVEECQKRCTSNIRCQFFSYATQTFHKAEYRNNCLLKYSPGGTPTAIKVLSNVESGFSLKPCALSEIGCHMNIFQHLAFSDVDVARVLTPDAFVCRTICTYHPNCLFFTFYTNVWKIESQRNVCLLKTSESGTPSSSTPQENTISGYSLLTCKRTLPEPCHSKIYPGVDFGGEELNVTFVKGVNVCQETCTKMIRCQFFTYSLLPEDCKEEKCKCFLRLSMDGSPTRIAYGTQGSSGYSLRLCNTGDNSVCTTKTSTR

Ki ([1]; measured at 25° C. (no asterisk)) [nM] | Ki [2] [nM] | Ki ([1]; measured at 37° C. (*)) [nM] | SMILES
6.26 | 10.6 | – | Nc1cccc2c1CCN(C(=O)c1cn(-c3cccc(Cl)c3F)nn1)C2C(=O)Nc1ccc(C(=O)O)cc1 (centres unmarked) [Example 334, 4-(5-Amino-2-(1-(3-chloro-2-fluorophenyl)-1H-1,2,3-triazole-4-carbonyl)-1,2,3,4-tetrahydroisoquinoline-1-carboxamido)benzoic acid, TFA salt]
– | < 5 | 96.9 | COC1CCN(c2cccc3c2CCN(C(=O)c2cn(-c4cccc(Cl)c4F)nn2)C3C(=O)Nc2ccc(C(N)=O)cc2)CC1 (centres unmarked) [Example 335, N-(4-Carbamoylphenyl)-2-(1-(3-chloro-2-fluorophenyl)-1H-1,2,3-triazole-4-carbonyl)-5-(4-methoxypiperidin-1-yl)-1,2,3,4-tetrahydroisoquinoline-1-carboxamide, TFA salt]
– | < 5 | 1.4 | CC(C)c1nnc2n1CCN(c1cccc3c1CCN(C(=O)[C@H]1CC(c4cccc(Cl)c4F)=NO1)[C@@H]3C(=O)Nc1ccc(C(=O)O)cc1)C2 [Example 336, 4-((S)-2-((R)-3-(3-Chloro-2-fluorophenyl)-4,5-dihydroisoxazole-5-carbonyl)-5-(3-isopropyl-5,6-dihydro-[1,2,4]triazolo[4,3-a]pyrazin-7(8H)-yl)-1,2,3,4-tetrahydroisoquinoline-1-carboxamido)benzoic acid, TFA salt]
– | 27.9 | 68.1 | CC(C)c1nnc2n1CCN(c1cccc3c1CCN(C(=O)[C@H]1CC(c4cccc(Cl)c4F)=NO1)[C@H]3C(=O)Nc1ccc(C(=O)O)cc1)C2 [Example 337, 4-((R)-2-((R)-3-(3-Chloro-2-fluorophenyl)-4,5-dihydroisoxazole-5-carbonyl)-5-(3-isopropyl-5,6-dihydro-[1,2,4]triazolo[4,3-a]pyrazin-7(8H)-yl)-1,2,3,4-tetrahydroisoquinoline-1-carboxamido)benzoic acid, TFA salt]

— patent publication US9738655B2, “Tetrahydroisoquinolines containing substituted azoles as factor XIa inhibitors” (BRISTOL-MYERS SQUIBB COMPANY, priority 2013, dated 2017)
